Measurements as given in US20260355182A1, “ISOQUINOLINE DERIVATIVE, SYNTHESIS METHOD THEREFOR, AND USE THEREOF” (Harbin Gloria Pharmaceuticals Co., Ltd., priority 2023, published 2026).
pKd: −log10 of the molar value.

Columns and labels:
[1] = target: T1, Pgk1 (Homo sapiens, UniProt P00558); test: Affinity for Pgk1 protein (Biacore T200); type: binding
T1 sequence (P00558 1-417): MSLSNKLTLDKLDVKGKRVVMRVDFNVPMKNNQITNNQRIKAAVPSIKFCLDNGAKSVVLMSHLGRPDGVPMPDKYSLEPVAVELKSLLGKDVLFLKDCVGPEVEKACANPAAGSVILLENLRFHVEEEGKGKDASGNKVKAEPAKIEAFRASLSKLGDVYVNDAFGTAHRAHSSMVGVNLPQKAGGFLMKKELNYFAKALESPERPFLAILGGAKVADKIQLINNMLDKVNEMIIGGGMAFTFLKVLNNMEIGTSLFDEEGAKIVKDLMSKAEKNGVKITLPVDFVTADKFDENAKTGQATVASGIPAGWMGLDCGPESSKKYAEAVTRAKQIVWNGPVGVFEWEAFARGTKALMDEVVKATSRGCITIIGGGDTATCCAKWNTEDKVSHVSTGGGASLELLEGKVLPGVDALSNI
Description: Example 30: Determination of Affinities of Compounds for Pgk1 Protein
Purified Pgk1 protein (with a concentration of 1 mg/mL) was immobilized on a Biacore T200 chip. […] The obtained curves can calculate parameters such as affinity and Rmax.

[2] = test system: db/db mice; test: Acute glucose-response assay in non-fasted db/db mice; type: in vivo; conditions: s.c., 2 h; TZ 0.5, liraglutide 0.6, T6 0.5 mg/Kg
Description: The db/db mice were used to evaluate the glucose-lowering activity of compound T6 in comparison with reference metabolic agents (TZ 0.5 mg/Kg, liraglutide 0.6 mg/Kg, T6 0.5 mg/Kg). In FIG. 15, A) for the acute glucose-response assay, drugs were administered to non-fasted db/db mice. Immediately after drug administration (s. c.), mice were deprived of food and water, and blood glucose levels were measured from tail blood samples 2 h later. The relative percentage change in blood glucose was calculated by comparing glucose levels before and after treatment in the same animal. […] HbA1c levels were then measured using a glycated hemoglobin A1c enzyme-linked immunosorbent assay, also referred to as a mouse HbA1c ELISA assay. […] Data are presented as mean±error bars, with individual circles representing individual animals. Statistical significance is indicated as P<0.001 (**) and P<0.0001 (***).

[3] = test system: SK-N-SH cells; test: Dose-effect relationship on cellular ATP levels in cultured SK-N-SH cells; type: cell-based, human
Description: SK-N-SH cells were seeded in a 6-well plate at a density of 6×10^4 per well. Cells were cultured for 12 hours under 5% O2, and the drug was added. Cells were harvested after 48 hours. Cellular ATP levels were measured using a Promega ATP assay kit. The experiment was repeated 5 times to 7 times.

[4] = test system: SOD1G93A transgenic mice; test: High-copy-number SOD1G93A ALS model mice, body weight and survival; type: in vivo; conditions: 0.2 mg/kg i.p. once daily from 80 days of age
Description: High-copy-number SOD1G93A transgenic mice, a genetic model of amyotrophic lateral sclerosis (ALS), were treated with compound T6 or vehicle control beginning at 80 days of age. T6 was administered once daily by intraperitoneal injection at 0.2 mg/kg, and control animals received PBS. Disease-associated slowing of movement was observed beginning at approximately 90 days of age. […] The control group included 7 mice, and the T6-treated group included 5 mice. T6 treatment shifted the survival curve to the right, indicating an extension of survival after initiation of treatment (survival analysis, p=0.072).

[5] = test system: FUS-525-GFP; test: Level of ALS-associated mutant FUS-GFP protein in primary mouse neurons (Western blot); type: cell-based; conditions: 5, 10 or 20 μM
Description: Primary mouse neurons were engineered to express GFP-tagged mutant FUS-525, an ALS-associated pathogenic FUS variant, and were treated with vehicle control or compound T6 at 5, 10, or 20 μM. Cell lysates were analyzed by Western blotting using antibodies detecting FUS-GFP, with GAPDH serving as a loading control. In FIG. 11, the FUS-GFP fusion protein was detected at approximately 96 kDa, whereas GAPDH was detected at approximately 38 kDa.

[6] = test system: MPTP-induced Parkinsonian mouse model; test: MPTP-induced Parkinsonian mouse model, rotarod and TH Western blot (T6); type: in vivo; conditions: T6 0.15, 0.3 and 1.5 mg/kg
Description: Mice were administered MPTP at 20 mg/kg to induce Parkinsonian motor impairment and dopaminergic neuronal injury. […] In FIG. 13, A) motor coordination and endurance were assessed using the rotarod test and are expressed as the time remaining on the rotating rod. […] Actin was used as a loading control. […] Data are presented as mean±error bars, with individual points representing biological replicates. Significance of one-way ANOVA analysis is indicated as P<0.05 (*), P<0.01 (**), and P<0.001 (***).

[7] = test system: SK-N-SH cells (Pgk1 knockdown); test: Seahorse mitochondrial respiration in Pgk1-knockdown and normal SK-N-SH cells; type: cell-based, human; conditions: 10 μM
Description: Cellular mitochondrial stress was detected using a Seahorse XFe analyzer (XFe-24, Seahorse Bioscience, Billerica, MA, UAS) to measure the oxygen consumption rate (OCR). SH-SKN cell lines were seeded in a 24-well plate compatible with the Seahorse XFe analyzer. After 24 hours, cells were treated with DMSO (0.01%) or various drugs (10 μM). Cellular mitochondrial stress was detected 12 hours after drug treatment. For the mitochondrial stress test, 97.2 mL of Seahorse basal medium (Seahorse Bioscience, Billerica, MA, UAS) was taken and heated in a water bath to 37 °C, and 1 mL of a stock solution was added. The stock solution was prepared by mixing the following solutions: 1 mL of 200 mM L-glutamine solution (Sigma), 1 mL of 100 mM pyruvate solution (Sigma), and 800 μL of 2.5 M glucose solution, and the pH of the stock solution was adjusted to 7.4 with 1 M NaOH solution. Before detection, the probe plate was taken out, and 1 mL of XF Carlibrant solution (Seahorse Bioscience) was added to the probe plate. The plate was then incubated overnight in a CO2-free constant temperature incubator at 37 °C. After drug treatment, the cells were removed and washed twice with preheated Seahorse basal medium at 37 °C, ensuring that 500 μL of Seahorse basal medium remained in each well. The cells were incubated in a CO2-free constant temperature incubator at 37 °C for 1 hour. […]

[8] = target: T1, Pgk1; test: In vitro biochemical Pgk1 enzymatic activity assay (NADH production); design: GAPDH-coupled NADH assay; conditions: role: activator, 1.6 mM GAP, 1 mM β-NAD, 1 mM ADP
Description: Human Pgk1 cDNA was cloned into the pEASYTM-E2 vector (TransGen Biotech) containing a His tag. Protein expression was induced in BL21(DE3) chemocompetent cells (TransGen Biotech) with 0.5 mM IPTG. After lysing cells in extraction buffer (20 mM sodium phosphate, 500 mM NaCl, 5 mM imidazole, 5% glycerol, protease inhibitor cocktail, pH 7.9), the supernatant was purified with nickel beads (AdarBiotech). The His-tagged Pgk1 was eluted with the elution buffer (20 mM sodium phosphate, 500 mM NaCl, 80 mM imidazole, protease inhibitor cocktail, pH 7.9). The activity of Pgk1 can be measured by monitoring the rate of NADH production, as NADH accumulated as the reaction proceeded. Purified Pgk1-His protein ([…]) was added to the reaction buffer (20 mM Tris, 100 mM NaCl, 2 mM DTT, 0.1 mM MgSO4, 10 mM NaHPO4, pH 8.6), and the substrates (1.6 mM GAP, 1 mM β-NAD, 1 mM ADP, 20 ng/μL GAPDH) was added. […] After reaction for 10 minutes at room temperature, the absorbance wavelength at 339 nm was measured using a microplate reader (Molecular Devices, SpectraMax i3x), and this wavelength corresponds to NADH levels.

Structure (SMILES): Nc1nc(N2CCN(C(=O)[C@H]3CCCO3)CC2)cc2cc3c(cc12)OCC3 [Compound T6]
- pKd ([1]; + saturated ADP, read-out: Affinity (KD) in the presence of ADP): < 3.00
- Rmax ([1]; drug alone, amount of small-molecule drug bound): 106 RU
- Acute change in blood glucose [2]: marked reduction in blood glucose
- Inhibition of cell growth ([3]; 50 μM, SK-N-SH cells): a tendency to inhibit cell growth
- minimal effective concentration ([3]; Homo sapiens, 48 h, SK-N-SH cells, read-out: Biologically effective concentration): ~10 µM
- Optimal dose for cellular ATP levels ([3]; doses 5, 10 and 50 μM, 48 hours, 5% O2): 50 µM
- Survival ([4]; vs PBS): delayed mortality
- Body weight ([4]; 81 to 123 days of age): maintained body weight more effectively
- Abundance of mutant FUS-GFP protein [5]: reduced the abundance of mutant FUS-GFP protein
- GAPDH level ([5]; loading control): remained largely unchanged
- Rotarod performance ([6]; MPTP 20 mg/kg): improved rotarod performance in MPTP-treated mice, with significant protective effects
- TH protein abundance ([6]; normalized to actin, vs MPTP alone): significantly increased relative TH abundance
- Basal and maximum respiratory rate, normal cells ([7]; normal (control) cells): activated both the basal respiratory rate and maximum respiratory rate
- Basal and maximum respiratory rate, shPgk1 knockdown cells ([7]; shPgk1 knockdown cells): this activity was absent in shPgk1 knockdown cells
- Concentration for best activation of Pgk1 ([8]; 20 ng/μL GAPDH, pH 8.6, 10 minutes): 0.1 µM
- Inhibition of Pgk1 at the tested concentrations ([8]; all tested concentrations): none of the concentrations can inhibit Pgk1
